Measurements from patent US6376535B2, “Oxygen-containing heterocyclic compounds” (Kyowa Hakko Kogyo Co., Ltd., priority 1998, dated 2002).

Tested on: not given
Experiment: not given
Settings: not given

| Structure (SMILES) | melting point [°C] |
| --- | --- |
| COc1ccc(-c2ccc3c(c2)C(=O)NC3=O)c2c1OCCO2 [Compound 23, 4-(8-Methoxy-1,4-benzodioxan-5-yl)phthalimide] | 285 to 287 |
| COc1ccc(-c2cccc3c2COC3=O)c2c1OCCO2 [Compound 22, 4-(8-Methoxy-1,4-benzodioxan-5-yl)-1(3H)-isobenzofuranone] | 158 to 160 |
| COC=C1CCC(C#N)(c2ccc(OC)c3c2OCCO3)CC1 (stereo not drawn) [Compound 6, 1-(8-Methoxy-1,4-benzodioxan-5-yl)-4-methoxymethylenecyclohexane carbonitrile] | 112 to 113 |
| COc1ccc(C2(C#N)CCC(=CC(=O)O)CC2)c2c1OCCO2 (stereo not drawn) [Compound 11, 4-Cyano-4-(8-methoxy-1,4-benzodioxan-5-yl)cyclohexanylideneacetic acid] | 203 to 204 |
| CCOC(=O)C=C1CCC(C#N)(c2ccc(OC)c3c2OCCO3)CC1 (stereo not drawn) [Compound 10, Ethyl 4-cyano-4-(8-methoxy-1,4-benzodioxan-5-yl)cyclohexanylideneacetate] | 110 to 112 |

Target: T1, Recombinant Human PDE IV Enzyme (HSPDE4A) (Homo sapiens, UniProt P27815)
T1 construct: made in house; host or cells: E. coli
Experiment: Inhibition Test on Recombinant Human PDE IV Enzyme
Format: biochemical
Settings: substrate [3H]cAMP 1 μmol/L
Method: Inhibition Test on Recombinant Human PDE IV Enzyme
Human phosphodiesterase cDNA (HSPDE4A) was isolated from testicles. Its predicted amino acid sequence is identical with the sequence (HSPDE4A5) reported by Bolger, G. et al. (Mol. Cell. Biol., 6558 (1993)) except that 223 amino acids have been deleted from the N-terminal thereof. This recombinant protein was expressed by an E. coli expression plasmid and then purified. The PDE activity was measured in the following 2-step process according to the method of Kincaid, R. and Manganiello, V. [Method. Enzymol., 159, 457 (1988)]. The substrate used was [^3H]cAMP (final concentration: 1 μmol/L), and the reaction was performed in a standard mixture containing N,N-bis(2-hydroxyethyl)-2-aminoethanesulfonic acid (50 mmol/L, pH 7.2), MgCl2 (1 mmol/L) and soybean trypsin inhibitor (0.1 mg/ml). The reaction was initiated by adding the enzyme thereto, and the mixture was incubated at 30° C. for 10 to 30 minutes. The reaction was quenched by hydrochloric acid, and the formed 5′-AMP was completely decomposed with […]. This sample was subjected to chromatography on DEAE-Sephadex A-25, and the eluted [^3H]adenosine was counted […] with a scintillation counter. The test compound was added after dissolved (concentration: 1.7%) in DMSO.

T1 sequence (P27815 224-886 limits assumed): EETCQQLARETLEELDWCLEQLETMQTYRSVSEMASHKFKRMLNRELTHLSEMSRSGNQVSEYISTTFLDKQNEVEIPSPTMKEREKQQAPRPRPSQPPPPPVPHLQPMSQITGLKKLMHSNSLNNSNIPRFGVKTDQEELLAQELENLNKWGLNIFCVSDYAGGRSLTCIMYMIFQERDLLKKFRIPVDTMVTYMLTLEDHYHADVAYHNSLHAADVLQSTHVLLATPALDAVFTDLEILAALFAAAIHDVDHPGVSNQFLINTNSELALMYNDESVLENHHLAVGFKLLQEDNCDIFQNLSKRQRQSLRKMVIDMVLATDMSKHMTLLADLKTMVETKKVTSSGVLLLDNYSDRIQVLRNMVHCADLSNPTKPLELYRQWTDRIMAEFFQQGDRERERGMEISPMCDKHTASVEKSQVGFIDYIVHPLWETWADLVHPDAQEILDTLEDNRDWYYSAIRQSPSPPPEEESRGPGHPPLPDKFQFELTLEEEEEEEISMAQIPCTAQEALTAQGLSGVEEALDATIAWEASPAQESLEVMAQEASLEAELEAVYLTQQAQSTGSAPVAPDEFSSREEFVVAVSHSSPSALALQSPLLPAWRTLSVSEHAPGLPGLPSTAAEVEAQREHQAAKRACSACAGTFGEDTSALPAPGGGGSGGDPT

| Structure (SMILES) | enzyme inhibitory activity |
| --- | --- |
| COc1ccc(C2(C#N)CCC(C(=O)O)CC2)c2c1OCCO2 (stereo not drawn) [Compound 5, cis-4-Cyano-4-(8-methoxy-1,4-benzodioxan-5-yl)cyclohexanecarboxylic acid] | over 87% |
